Here are results for ten molecules from patent US20240269123A1, “MUSCLE REGENERATION PROMOTER” (priority 2021, published 2024).

Test [1] has as its system tibialis anterior muscle damaged by snake venom cardiotoxin (CTX). Put plainly: Muscle regeneration in cardiotoxin (CTX) muscle-damage model mouse, regenerated single muscle fiber area. Format: in vivo, mouse (C57BL/6). Particulars: once a day; for increase in the mean muscle fiber area as compared with the Vehicle administration group: day before CTX to 6 days after CTX, muscle collected 7 days after CTX; for histogram of the regenerated single-muscle fiber area as compared with the Vehicle administration group: 7 days after CTX. The method, then:
Seven-week old C57BL/6 Male mice (CLEA Japan, Inc.) were purchased, and used for experiment at the age of 8 weeks.
A model animal to which muscle damage had been caused by administration of snake venom cardiotoxin (CTX) was used. The muscle-damaged model animal has been widely used in studies on the regeneration from muscle damage.
Under the anesthesia with isoflurane, 50 μL of 10 μM CTX was administered to the tibialis anterior muscle of the right hindlimb of the mouse. After 7 days of the administration of CTX, the tibialis anterior muscle was collected by dissection, and supplied to the preparation of a muscle tissue section.
Immediately after the collection of the tibialis anterior muscle, the tibialis anterior muscle was immersed in isopentane cooled with liquid nitrogen and was rapidly frozen. The frozen muscle tissue was cut into slices each having a thickness of 10 μm by using a cryostat (Leica Biosystems), and the slice was attached onto an antistripping coated slide glass (Matsunami Glass Ind., Ltd.).
A muscle tissue section was sufficiently air dried for 30 minutes under room temperature. After that, the muscle tissue section was fixed by immersing it in acetone cooled to −30° C. and treating at −30° ° C. for 20 minutes. The fixed section was air dried once and washed with PBS. Then the section was blocked by dropwisely adding a blocking reagent (Blocking One, NACALAI TESQUE, INC.) to the section and being subjected to the blocking treatment for 1 hour. Next, a primary antibody (Anti-laminin-2 (α-2 Chain) antibody, Rat monoclonal (Sigma-Aldrich)) obtained by being diluted 500 times with the blocking reagent was added dropwise, and the reaction was conducted at overnight at 4° C. Since laminin to which a primary antibody binds is a protein expressed in all muscle cells, the primary antibody was used in this experiment in order to measure the area of individual muscle cells in a section. The muscle tissue section after the reaction with the primary antibody was washed with PBS, and then was reacted for 1 hour with a secondary antibody (CF 488A Goat Anti-Rat IgG (H+L) (Biotium)) obtained by being diluted 500 times with the blocking reagent. The secondary antibody that is an anti-rat antibody conjugated with a fluorescent dye binds to the primary antibody, and stains the laminin. The muscle tissue section after the reaction with the secondary antibody was washed with PBS, and sealed by using “[…] Hard. Set with DAPI” (Vector), and then the fluorescence observation was performed with an inverted microscope FSX100 (Olympus). The “[…] Hard Set with DAPI” was used for staining the central nucleus of muscle cells.
The muscle regeneration was evaluated on the basis of the image data taken from the fluorescence observation. In this experiment, muscle cells each having a central nucleus (single muscle fiber having a central nuclei) were used as an indicator for regenerated muscle. After the image data was taken into image analysis software ImageJ (NIH), a muscle cell having a central nucleus was extracted. The cross-sectional area of the extracted individual cells was measured on the basis of the cell membrane stained with laminin. For the area measurement, “Analyze Particles” that is an add-in analysis program on ImageJ was used. The measurement results were shown as a distribution chart (histogram) of the areas and number of regenerated single-muscle fibers, and as an average value of the cross-sectional areas of all the regenerated single muscle fibers (mean muscle fiber area). […]

The next test concerns histamine H3 receptor. Particulars: statement taken from the literature; cited from earlier work.
Where [2] appears, read: 1 μM in PBS, 10 μL intramuscular.
Setting [3] is: 6.3 mM in PBS with 5% tween 20, 10 μL intramuscular.

Structures are written as SMILES. Structures can show the parent of a compound that is named as a salt.

In the case of `c1cc(Cc2c[nH]cn2)ccn1` [Immethridine dihydrobromide, 4-[(1H-imidazol-4-yl)methyl]pyridine], in test [1] (setting [2]), the “increase in the mean muscle fiber area as compared with the Vehicle administration group” value (shortened to “increase in the mean muscle fiber area”) amounted to 14.0% and the “histogram of the regenerated single-muscle fiber area as compared with the Vehicle administration group” value is “shifted to the right side”.

Regarding `C[C@@H](N)Cc1c[nH]cn1` [Compound 1, (2R)-1-(1H-imidazol-4-yl)propan-2-amine], the “selectivity of agonist activity for the histamine H3 receptor over other histamine receptors” value (“selectivity of agonist activity” for short) in the test with histamine H3 receptor is recorded as “selective histamine H3 receptor agonist”.

`CCCNC1CN(c2ccnc(N)n2)C1` [Compound 20, 4-[3-(propylamino)azetidin-1-yl]pyrimidin-2-amine]: the “selectivity of agonist activity” value with histamine H3 receptor is given as “selective histamine H3 receptor agonist”.

For `N=C(N)SCCc1c[nH]cn1` [Imetit dihydrobromide, 2-(1H-imidazol-4-yl)ethyl carbamimidothioate], in test [1] (1 μM in PBS, 10 μL intramuscular, unit not given), the “increase in the mean muscle fiber area” value worked out at 13.18. In addition, in test [1] (setting [2]), the “histogram of the regenerated single-muscle fiber area as compared with the Vehicle administration group” value is reported as “shifted to the right side”. With `c1nc(CC2CCNCC2)c[nH]1` [Compound 13, 4-[(1H-imidazol-4-yl)methyl]piperidine], in the test on histamine H3 receptor, the “selectivity of agonist activity” value is on record as “selective histamine H3 receptor agonist”. As for `C[C@@H](N)Cc1c[nH]cn1` [R-α-methylhistamine dihydrochloride, (2R)-1-(1H-imidazol-4-yl)propan-2-amine], in test [1] (setting [3]), the “increase in the mean muscle fiber area” value is 12.3% and the “histogram of the regenerated single-muscle fiber area as compared with the Vehicle administration group” value is on record as “shifted to the right side”. In the case of `c1cc(Cc2c[nH]cn2)ccn1` [Compound 5, 4-[(1H-imidazol-4-yl)methyl]pyridine], in the test on histamine H3 receptor, the “selectivity of agonist activity” value is “selective histamine H3 receptor agonist”.

As for `CNCCc1c[nH]cn1` [Compound 4, 2-(1H-imidazol-4-yl)-N-methylethan-1-amine], in the test with histamine H3 receptor, the “selectivity of agonist activity” value was “non-selective histamine H3 receptor agonist”.

In the case of `CNCCc1c[nH]cn1` [N^α-methylhistamine dihydrochloride, 2-(1H-imidazol-4-yl)-N-methylethan-1-amine], in test [1] (setting [2]), the “increase in the mean muscle fiber area” value worked out at 7.1% and the “histogram of the regenerated single-muscle fiber area as compared with the Vehicle administration group” value is on record as “shifted to the right side”. Turning to `CN1CCC(Cc2c[nH]cn2)CC1` [Compound 15, 4-[(1H-imidazol-4-yl)methyl]-1-methylpiperidine], in the test with histamine H3 receptor, the “selectivity of agonist activity” value is “selective histamine H3 receptor agonist”.
